The results in this text go back to ChEMBL document CHEMBL1153581, “Synthesis, antiviral and anticancer activity of some novel thioureas derived from N-(4-nitro-2-phenoxyphenyl)-methanesulfonamide” (Eur J Med Chem, 2009).

Each structure is given as a SMILES string. Values after ≈ are worked out from the molar mass of the structure shown.

The test concerns Vaccinia virus. The test can be described thus: Antiviral activity against Vaccinia virus infected in human HEL cells assessed as protection against virus-induced cytopathogenicity. Format: functional. To be noted: Orthopoxvirus vaccinia. A general note: Protection from cytopathic effect is a common read-out in antiviral testing.
Turning to `NC(=O)c1ncn([C@@H]2O[C@H](CO)[C@@H](O)[C@H]2O)n1` [RIBAVIRIN], the MIC50 was 150 µg/mL (≈ 614 µM).
In the case of `C=CCNC(=S)Nc1ccc(NS(C)(=O)=O)c(Oc2ccccc2)c1`, the MIC50 is above 40 µg/mL.
For `Nc1nc2c(ncn2COCCO)c(=O)[nH]1` [ACYCLOVIR], the MIC50 was above 250 µg/mL.
The value for `CS(=O)(=O)Nc1ccc(NC(=S)NCCc2ccc(Cl)cc2)cc1Oc1ccccc1` was above 100 µg/mL; that for `CS(=O)(=O)Nc1ccc(NC(=S)Nc2ccc([N+](=O)[O-])cc2)cc1Oc1ccccc1` was 8 µg/mL (≈ 17.4 µM).
On to `CS(=O)(=O)Nc1ccc(NC(=S)NCc2ccccc2)cc1Oc1ccccc1`, for which the MIC50 is above 8 µg/mL.
The value for `Nc1nc2c(ncn2COC(CO)CO)c(=O)[nH]1` [GANCICLOVIR] was 100 µg/mL (≈ 392 µM); that for `CS(=O)(=O)Nc1ccc(NC(=S)NCCc2ccccc2)cc1Oc1ccccc1` was above 8 µg/mL.
The value for `CNC(=S)Nc1ccc(NS(C)(=O)=O)c(Oc2ccccc2)c1` was 100 µg/mL (≈ 285 µM); that for `O=c1[nH]c(=O)n([C@H]2C[C@H](O)[C@@H](CO)O2)cc1/C=C/Br` [BRIVUDINE] was 2 µg/mL (≈ 6 µM).
`CCNC(=S)Nc1ccc(NS(C)(=O)=O)c(Oc2ccccc2)c1`: the MIC50 was determined as 40 µg/mL (≈ 109 µM).
The value for `CS(=O)(=O)Nc1ccc(NC(=S)NC2CCCCC2)cc1Oc1ccccc1` was above 8 µg/mL; that for `CCCNC(=S)Nc1ccc(NS(C)(=O)=O)c(Oc2ccccc2)c1` was above 40 µg/mL.
